# According to patent publication US4401604A, “Process for preparing thiosulfenamide derivatives of N-phosphonomethylglycine triesters” (Monsanto Company, priority 1981, dated 1983):
# Assays:
# Assay in all cases: Post-emergence herbicidal activity, greenhouse
# Format in all cases: in vivo
# Barnyardgrass = tested on: Barnyardgrass
# Outline: (§1)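 Plants grown 2–3 weeks in greenhouse soil pans, then atomizer-sprayed with candidate in solvent/water spray containing ~0.4% emulsifier (butylamine dodecylbenzene sulfonate/tall oil ethoxylate) at stated application rates. Injury scored versus unsprayed controls at ~2 and 4 weeks after treatment, as an activity index.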
# Canada Thistle = settings: Table I, 4 WAT
# Outline: as §1
# Cocklebur = tested on: Cocklebur
# Outline: as §1
# Crabgrass = settings: Table II
# Outline: as §1
# Downy Brome = tested on: Downy Brome
# Outline: as §1
# Hemp Sesbania = settings: Table II
# Outline: as §1
# Johnsongrass = settings: Table I, 4 WAT
# Outline: as §1
# Lambsquarters = tested on: Lambsquarters
# Outline: as §1
# Morningglory = tested on: Morningglory
# Outline: as §1
# Panicum Spp = settings: Table II
# Outline: as §1
# Quackgrass = settings: Table I, 4 WAT
# Outline: as §1
# Rice = settings: Table II
# Outline: as §1
# Smartweed = tested on: Smartweed
# Outline: as §1
# Sorghum = settings: Table II
# Outline: as §1
# Soybean = settings: Table II
# Outline: as §1
# Sugar Beet = settings: Table II
# Outline: as §1
# Velvetleaf = tested on: Velvetleaf
# Outline: as §1
# Wheat = settings: Table II
# Outline: as §1
# Wild Buckwheat = settings: Table II
# Outline: as §1
# Yellow Nutsedge = settings: Table I, 4 WAT
# Outline: as §1
smiles,measurement,setting,value
"COC(=O)CN(CP(=O)(Oc1ccccc1)Oc1ccccc1)SSC(C)C [I, Glycine, N-[(diphenoxyphosphinyl)methyl]-N-[(1-methylethyl)dithio]-, methyl ester]",post-emergence herbicidal activity index,"Barnyardgrass; Table I, 5.6 kg/h, 4 WAT",4 (100% control)
same,post-emergence herbicidal activity index,"Barnyardgrass; Table I, 11.2 kg/h, 4 WAT",4 (100% control)
same,post-emergence herbicidal activity index,"Barnyardgrass; Table II, 0.056 kg/h, 2 WAT",0 (0- 24% control)
same,post-emergence herbicidal activity index,"Barnyardgrass; Table II, 0.28 kg/h, 2 WAT",1 (25-49% control)
same,post-emergence herbicidal activity index,"Barnyardgrass; Table II, 1.12 kg/h, 4 WAT",2 (50-74% control)
same,post-emergence herbicidal activity index,"Barnyardgrass; Table II, 5.6 kg/h, 4 WAT",4 (100% control)
same,post-emergence herbicidal activity index,"Barnyardgrass; Table II, 11.2 kg/h, 4 WAT",3 (75-99% control)
same,post-emergence herbicidal activity index,Canada Thistle; 5.6 kg/h,2 (50-74% control)
same,post-emergence herbicidal activity index,Canada Thistle; 11.2 kg/h,3 (75-99% control)
same,post-emergence herbicidal activity index,"Cocklebur; Table I, 5.6 kg/h, 4 WAT",4 (100% control)
same,post-emergence herbicidal activity index,"Cocklebur; Table I, 11.2 kg/h, 4 WAT",4 (100% control)
same,post-emergence herbicidal activity index,"Cocklebur; Table II, 0.056 kg/h, 2 WAT",0 (0- 24% control)
same,post-emergence herbicidal activity index,"Cocklebur; Table II, 0.28 kg/h, 2 WAT",0 (0- 24% control)
same,post-emergence herbicidal activity index,"Cocklebur; Table II, 1.12 kg/h, 4 WAT",2 (50-74% control)
same,post-emergence herbicidal activity index,"Cocklebur; Table II, 5.6 kg/h, 4 WAT",3 (75-99% control)
same,post-emergence herbicidal activity index,"Cocklebur; Table II, 11.2 kg/h, 4 WAT",0 (0- 24% control)
same,post-emergence herbicidal activity index,"Crabgrass; 0.056 kg/h, 2 WAT",0 (0- 24% control)
same,post-emergence herbicidal activity index,"Crabgrass; 0.28 kg/h, 2 WAT",0 (0- 24% control)
same,post-emergence herbicidal activity index,"Crabgrass; 1.12 kg/h, 4 WAT",3 (75-99% control)
same,post-emergence herbicidal activity index,"Crabgrass; 5.6 kg/h, 4 WAT",4 (100% control)
same,post-emergence herbicidal activity index,"Crabgrass; 11.2 kg/h, 4 WAT",3 (75-99% control)
same,post-emergence herbicidal activity index,"Downy Brome; Table I, 5.6 kg/h, 4 WAT",3 (75-99% control)
same,post-emergence herbicidal activity index,"Downy Brome; Table I, 11.2 kg/h, 4 WAT",3 (75-99% control)
same,post-emergence herbicidal activity index,"Downy Brome; Table II, 0.056 kg/h, 2 WAT",0 (0- 24% control)
same,post-emergence herbicidal activity index,"Downy Brome; Table II, 0.28 kg/h, 2 WAT",0 (0- 24% control)
same,post-emergence herbicidal activity index,"Downy Brome; Table II, 1.12 kg/h, 4 WAT",1 (25-49% control)
same,post-emergence herbicidal activity index,"Downy Brome; Table II, 5.6 kg/h, 4 WAT",2 (50-74% control)
same,post-emergence herbicidal activity index,"Downy Brome; Table II, 11.2 kg/h, 4 WAT",2 (50-74% control)
same,post-emergence herbicidal activity index,"Hemp Sesbania; 0.056 kg/h, 2 WAT",0 (0- 24% control)
same,post-emergence herbicidal activity index,"Hemp Sesbania; 0.28 kg/h, 2 WAT",0 (0- 24% control)
same,post-emergence herbicidal activity index,"Hemp Sesbania; 1.12 kg/h, 4 WAT",1 (25-49% control)
same,post-emergence herbicidal activity index,"Hemp Sesbania; 5.6 kg/h, 4 WAT",4 (100% control)
same,post-emergence herbicidal activity index,"Hemp Sesbania; 11.2 kg/h, 4 WAT",0 (0- 24% control)
same,post-emergence herbicidal activity index,Johnsongrass; 5.6 kg/h,3 (75-99% control)
same,post-emergence herbicidal activity index,Johnsongrass; 11.2 kg/h,4 (100% control)
same,post-emergence herbicidal activity index,"Lambsquarters; Table I, 5.6 kg/h, 4 WAT",3 (75-99% control)
same,post-emergence herbicidal activity index,"Lambsquarters; Table I, 11.2 kg/h, 4 WAT",4 (100% control)
same,post-emergence herbicidal activity index,"Lambsquarters; Table II, 0.056 kg/h, 2 WAT",0 (0- 24% control)
same,post-emergence herbicidal activity index,"Lambsquarters; Table II, 0.28 kg/h, 2 WAT",0 (0- 24% control)
same,post-emergence herbicidal activity index,"Lambsquarters; Table II, 1.12 kg/h, 4 WAT",3 (75-99% control)
same,post-emergence herbicidal activity index,"Lambsquarters; Table II, 5.6 kg/h, 4 WAT",4 (100% control)
same,post-emergence herbicidal activity index,"Lambsquarters; Table II, 11.2 kg/h, 4 WAT",3 (75-99% control)
same,post-emergence herbicidal activity index,"Morningglory; Table I, 5.6 kg/h, 4 WAT",4 (100% control)
same,post-emergence herbicidal activity index,"Morningglory; Table I, 11.2 kg/h, 4 WAT",3 (75-99% control)
same,post-emergence herbicidal activity index,"Morningglory; Table II, 0.056 kg/h, 2 WAT",0 (0- 24% control)
same,post-emergence herbicidal activity index,"Morningglory; Table II, 0.28 kg/h, 2 WAT",0 (0- 24% control)
same,post-emergence herbicidal activity index,"Morningglory; Table II, 1.12 kg/h, 4 WAT",2 (50-74% control)
same,post-emergence herbicidal activity index,"Morningglory; Table II, 5.6 kg/h, 4 WAT",3 (75-99% control)
same,post-emergence herbicidal activity index,"Morningglory; Table II, 11.2 kg/h, 4 WAT",1 (25-49% control)
same,post-emergence herbicidal activity index,"Panicum Spp; 0.056 kg/h, 2 WAT",0 (0- 24% control)
same,post-emergence herbicidal activity index,"Panicum Spp; 0.28 kg/h, 2 WAT",1 (25-49% control)
same,post-emergence herbicidal activity index,"Panicum Spp; 1.12 kg/h, 4 WAT",1 (25-49% control)
same,post-emergence herbicidal activity index,"Panicum Spp; 5.6 kg/h, 4 WAT",3 (75-99% control)
same,post-emergence herbicidal activity index,"Panicum Spp; 11.2 kg/h, 4 WAT",3 (75-99% control)
same,post-emergence herbicidal activity index,Quackgrass; 5.6 kg/h,4 (100% control)
same,post-emergence herbicidal activity index,Quackgrass; 11.2 kg/h,3 (75-99% control)
same,post-emergence herbicidal activity index,"Rice; 0.056 kg/h, 2 WAT",0 (0- 24% control)
same,post-emergence herbicidal activity index,"Rice; 0.28 kg/h, 2 WAT",0 (0- 24% control)
same,post-emergence herbicidal activity index,"Rice; 1.12 kg/h, 4 WAT",0 (0- 24% control)
same,post-emergence herbicidal activity index,"Rice; 5.6 kg/h, 4 WAT",3 (75-99% control)
same,post-emergence herbicidal activity index,"Rice; 11.2 kg/h, 4 WAT",3 (75-99% control)
same,post-emergence herbicidal activity index,"Smartweed; Table I, 5.6 kg/h, 4 WAT",4 (100% control)
same,post-emergence herbicidal activity index,"Smartweed; Table I, 11.2 kg/h, 4 WAT",4 (100% control)
same,post-emergence herbicidal activity index,"Smartweed; Table II, 0.056 kg/h, 2 WAT",0 (0- 24% control)
same,post-emergence herbicidal activity index,"Smartweed; Table II, 0.28 kg/h, 2 WAT",0 (0- 24% control)
same,post-emergence herbicidal activity index,"Smartweed; Table II, 1.12 kg/h, 4 WAT",3 (75-99% control)
same,post-emergence herbicidal activity index,"Smartweed; Table II, 5.6 kg/h, 4 WAT",4 (100% control)
same,post-emergence herbicidal activity index,"Smartweed; Table II, 11.2 kg/h, 4 WAT",3 (75-99% control)
same,post-emergence herbicidal activity index,"Sorghum; 0.056 kg/h, 2 WAT",0 (0- 24% control)
same,post-emergence herbicidal activity index,"Sorghum; 0.28 kg/h, 2 WAT",0 (0- 24% control)
same,post-emergence herbicidal activity index,"Sorghum; 1.12 kg/h, 4 WAT",1 (25-49% control)
same,post-emergence herbicidal activity index,"Sorghum; 5.6 kg/h, 4 WAT",3 (75-99% control)
same,post-emergence herbicidal activity index,"Sorghum; 11.2 kg/h, 4 WAT",2 (50-74% control)
same,post-emergence herbicidal activity index,"Soybean; 0.056 kg/h, 2 WAT",0 (0- 24% control)
same,post-emergence herbicidal activity index,"Soybean; 0.28 kg/h, 2 WAT",0 (0- 24% control)
same,post-emergence herbicidal activity index,"Soybean; 1.12 kg/h, 4 WAT",1 (25-49% control)
same,post-emergence herbicidal activity index,"Soybean; 5.6 kg/h, 4 WAT",3 (75-99% control)
same,post-emergence herbicidal activity index,"Soybean; 11.2 kg/h, 4 WAT",0 (0- 24% control)
same,post-emergence herbicidal activity index,"Sugar Beet; 0.056 kg/h, 2 WAT",0 (0- 24% control)
same,post-emergence herbicidal activity index,"Sugar Beet; 0.28 kg/h, 2 WAT",0 (0- 24% control)
same,post-emergence herbicidal activity index,"Sugar Beet; 1.12 kg/h, 4 WAT",2 (50-74% control)
same,post-emergence herbicidal activity index,"Sugar Beet; 5.6 kg/h, 4 WAT",4 (100% control)
same,post-emergence herbicidal activity index,"Sugar Beet; 11.2 kg/h, 4 WAT",3 (75-99% control)
same,post-emergence herbicidal activity index,"Velvetleaf; Table I, 5.6 kg/h, 4 WAT",3 (75-99% control)
same,post-emergence herbicidal activity index,"Velvetleaf; Table I, 11.2 kg/h, 4 WAT",4 (100% control)
same,post-emergence herbicidal activity index,"Velvetleaf; Table II, 0.056 kg/h, 2 WAT",0 (0- 24% control)
same,post-emergence herbicidal activity index,"Velvetleaf; Table II, 0.28 kg/h, 2 WAT",1 (25-49% control)
same,post-emergence herbicidal activity index,"Velvetleaf; Table II, 1.12 kg/h, 4 WAT",2 (50-74% control)
same,post-emergence herbicidal activity index,"Velvetleaf; Table II, 5.6 kg/h, 4 WAT",4 (100% control)
same,post-emergence herbicidal activity index,"Velvetleaf; Table II, 11.2 kg/h, 4 WAT",1 (25-49% control)
same,post-emergence herbicidal activity index,"Wheat; 0.056 kg/h, 2 WAT",0 (0- 24% control)
same,post-emergence herbicidal activity index,"Wheat; 0.28 kg/h, 2 WAT",0 (0- 24% control)
same,post-emergence herbicidal activity index,"Wheat; 1.12 kg/h, 4 WAT",1 (25-49% control)
same,post-emergence herbicidal activity index,"Wheat; 5.6 kg/h, 4 WAT",3 (75-99% control)
same,post-emergence herbicidal activity index,"Wheat; 11.2 kg/h, 4 WAT",0 (0- 24% control)
same,post-emergence herbicidal activity index,"Wild Buckwheat; 0.056 kg/h, 2 WAT",0 (0- 24% control)
same,post-emergence herbicidal activity index,"Wild Buckwheat; 0.28 kg/h, 2 WAT",0 (0- 24% control)
same,post-emergence herbicidal activity index,"Wild Buckwheat; 1.12 kg/h, 4 WAT",2 (50-74% control)
same,post-emergence herbicidal activity index,"Wild Buckwheat; 5.6 kg/h, 4 WAT",3 (75-99% control)
same,post-emergence herbicidal activity index,"Wild Buckwheat; 11.2 kg/h, 4 WAT",0 (0- 24% control)
same,post-emergence herbicidal activity index,Yellow Nutsedge; 5.6 kg/h,3 (75-99% control)
same,post-emergence herbicidal activity index,Yellow Nutsedge; 11.2 kg/h,3 (75-99% control)
